Assay results from ChEMBL document CHEMBL5537159, “Discovery and SAR of JTE-151: A Novel RORγ Inhibitor for Clinical Development” (J Med Chem, 2024).

Key:
[1] = Tmax in human at 100 […], po administered as single dose and measured upto 144 hrs; type: ADME, organism-based; details: in vivo
[2] = AUCinfinity in CD(SD) rat at 10 mg/kg, po administered as single dose and measured after 24 hrs; type: ADME, organism-based; details: in vivo
[3] = Selectivity ratio of agonist activity at human RXRalpha to inhibition of RORgamma (unknown origin)
[4] = Inhibition of rat Muscarinic receptor
[5] = Selectivity ratio of agonist activity at human PPARgamma to inhibition of RORgamma (unknown origin)
[6] = AUClast in human at 400 mg/kg, po administered as single dose and measured upto 144 hrs; type: ADME, organism-based; details: in vivo
[7] = target: 5-hydroxytryptamine receptor 3A (Homo sapiens, UniProt P46098); assay: Inhibition of human 5-HT3 receptor
Sequence of 5-hydroxytryptamine receptor 3A (P46098 whole entry): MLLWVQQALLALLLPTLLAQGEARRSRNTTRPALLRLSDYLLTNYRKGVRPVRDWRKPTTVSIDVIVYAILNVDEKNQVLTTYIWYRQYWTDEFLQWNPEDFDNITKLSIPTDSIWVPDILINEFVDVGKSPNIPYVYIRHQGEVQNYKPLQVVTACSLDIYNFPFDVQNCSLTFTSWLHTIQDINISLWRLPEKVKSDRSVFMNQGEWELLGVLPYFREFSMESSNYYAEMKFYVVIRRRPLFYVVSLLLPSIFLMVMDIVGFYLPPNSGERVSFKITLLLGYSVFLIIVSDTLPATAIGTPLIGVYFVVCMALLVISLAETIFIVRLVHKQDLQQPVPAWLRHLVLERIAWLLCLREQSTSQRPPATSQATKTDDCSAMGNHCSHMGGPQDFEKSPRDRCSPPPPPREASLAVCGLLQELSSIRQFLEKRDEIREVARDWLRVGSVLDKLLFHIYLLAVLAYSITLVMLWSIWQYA

[8] = Selectivity ratio of antagonist activity at human PR to inhibition of RORgamma (unknown origin)
[9] = Selectivity ratio of agonist activity at human AR to inhibition of RORgamma (unknown origin)
[10] = target: Beta-2 adrenergic receptor (Homo sapiens, UniProt P07550); assay: Inhibition of human adrenergic beta2 receptor
Sequence of Beta-2 adrenergic receptor (P07550 whole entry): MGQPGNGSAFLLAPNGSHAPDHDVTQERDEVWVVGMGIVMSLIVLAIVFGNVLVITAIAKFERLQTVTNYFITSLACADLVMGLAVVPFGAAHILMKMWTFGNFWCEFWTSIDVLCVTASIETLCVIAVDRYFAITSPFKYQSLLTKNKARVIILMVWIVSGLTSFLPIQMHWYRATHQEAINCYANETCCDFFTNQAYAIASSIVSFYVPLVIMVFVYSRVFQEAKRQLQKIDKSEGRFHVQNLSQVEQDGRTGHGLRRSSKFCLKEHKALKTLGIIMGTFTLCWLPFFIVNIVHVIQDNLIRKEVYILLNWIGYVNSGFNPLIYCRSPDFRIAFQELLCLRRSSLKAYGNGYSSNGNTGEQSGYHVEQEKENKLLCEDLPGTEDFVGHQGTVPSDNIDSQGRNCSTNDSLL

[11] = Selectivity ratio of agonist activity at human PPARdelta to inhibition of RORgamma (unknown origin)
[12] = Total body clearance in Beagle dog at 1 mg/kg, iv administered as single dose and measured after 24 hrs; type: ADME, organism-based, Canis lupus familiaris; details: in vivo
[13] = Selectivity ratio of antagonist activity at human ERalpha to inhibition of RORgamma (unknown origin)
[14] = Genotoxicity in Salmonella typhimurium TA100 at 23 to 750 ug in absence of S9 fraction by bacterial reverse mutation test; type: toxicity, Salmonella enterica subsp. enterica serovar Typhimurium; details: in vivo; dose 23-750 µg
[15] = Genotoxicity in Salmonella typhimurium TA1537 at 23 to 750 ug in absence of S9 fraction by bacterial reverse mutation test; type: toxicity, Salmonella enterica subsp. enterica serovar Typhimurium; details: in vivo; dose 23-750 µg
[16] = target: Cytochrome P450 2C9 (Homo sapiens, UniProt P11712); assay: Inhibition of CYP2C9 in human liver microsomes; type: ADME, Microsome
Sequence of Cytochrome P450 2C9 (P11712 whole entry): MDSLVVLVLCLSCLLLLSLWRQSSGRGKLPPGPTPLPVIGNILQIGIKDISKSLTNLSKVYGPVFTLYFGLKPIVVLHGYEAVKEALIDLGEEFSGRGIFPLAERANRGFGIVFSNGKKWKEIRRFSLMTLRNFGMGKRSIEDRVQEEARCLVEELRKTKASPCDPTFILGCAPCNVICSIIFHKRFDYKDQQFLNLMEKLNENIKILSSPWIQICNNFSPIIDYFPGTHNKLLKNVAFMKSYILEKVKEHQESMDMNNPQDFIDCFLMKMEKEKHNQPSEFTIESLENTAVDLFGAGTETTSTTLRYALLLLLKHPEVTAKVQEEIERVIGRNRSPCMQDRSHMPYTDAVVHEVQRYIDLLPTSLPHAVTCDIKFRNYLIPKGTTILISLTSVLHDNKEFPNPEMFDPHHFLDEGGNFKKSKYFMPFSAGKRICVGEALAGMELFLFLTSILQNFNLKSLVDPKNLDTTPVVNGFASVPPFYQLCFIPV

[17] = target: Histamine H2 receptor (Homo sapiens, UniProt P25021); assay: Inhibition of human histamine H2 receptor
Sequence of Histamine H2 receptor (P25021 whole entry): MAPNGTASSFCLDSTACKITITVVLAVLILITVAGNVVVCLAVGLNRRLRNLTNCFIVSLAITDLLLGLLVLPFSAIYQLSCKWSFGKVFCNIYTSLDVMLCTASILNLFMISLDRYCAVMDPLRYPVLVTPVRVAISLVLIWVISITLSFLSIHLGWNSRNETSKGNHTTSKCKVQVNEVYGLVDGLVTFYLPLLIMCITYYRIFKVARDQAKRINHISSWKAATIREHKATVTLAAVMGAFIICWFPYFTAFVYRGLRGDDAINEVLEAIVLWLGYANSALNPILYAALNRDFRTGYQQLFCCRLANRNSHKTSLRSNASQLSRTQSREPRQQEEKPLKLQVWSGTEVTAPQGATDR

[18] = target: Amine oxidase [flavin-containing] A (Homo sapiens, UniProt P21397); assay: Inhibition of human MAO-A
Sequence of Amine oxidase [flavin-containing] A (P21397 whole entry): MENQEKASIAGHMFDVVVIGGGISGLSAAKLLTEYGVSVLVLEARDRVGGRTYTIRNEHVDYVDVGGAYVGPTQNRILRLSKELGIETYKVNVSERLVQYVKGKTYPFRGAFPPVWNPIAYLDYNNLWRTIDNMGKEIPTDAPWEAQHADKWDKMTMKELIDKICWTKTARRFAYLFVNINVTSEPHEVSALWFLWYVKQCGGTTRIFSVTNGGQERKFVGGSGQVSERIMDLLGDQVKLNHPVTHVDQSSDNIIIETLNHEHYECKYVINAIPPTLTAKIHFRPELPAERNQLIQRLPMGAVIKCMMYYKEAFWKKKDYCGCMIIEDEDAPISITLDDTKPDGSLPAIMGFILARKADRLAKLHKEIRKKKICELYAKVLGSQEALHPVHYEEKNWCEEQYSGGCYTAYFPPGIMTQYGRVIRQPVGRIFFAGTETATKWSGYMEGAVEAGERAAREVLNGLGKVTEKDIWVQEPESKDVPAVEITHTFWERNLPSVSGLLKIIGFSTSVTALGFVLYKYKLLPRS

[19] = Tmax in human at 60 […], po administered as single dose and measured upto 144 hrs; type: ADME, organism-based; details: in vivo
[20] = target: Cytochrome P450 3A5 (Homo sapiens, UniProt P20815); assay: Inhibition of CYP3A5 in human liver microsomes using testosterone as substrate; type: ADME, Microsome
Sequence of Cytochrome P450 3A5 (P20815 whole entry): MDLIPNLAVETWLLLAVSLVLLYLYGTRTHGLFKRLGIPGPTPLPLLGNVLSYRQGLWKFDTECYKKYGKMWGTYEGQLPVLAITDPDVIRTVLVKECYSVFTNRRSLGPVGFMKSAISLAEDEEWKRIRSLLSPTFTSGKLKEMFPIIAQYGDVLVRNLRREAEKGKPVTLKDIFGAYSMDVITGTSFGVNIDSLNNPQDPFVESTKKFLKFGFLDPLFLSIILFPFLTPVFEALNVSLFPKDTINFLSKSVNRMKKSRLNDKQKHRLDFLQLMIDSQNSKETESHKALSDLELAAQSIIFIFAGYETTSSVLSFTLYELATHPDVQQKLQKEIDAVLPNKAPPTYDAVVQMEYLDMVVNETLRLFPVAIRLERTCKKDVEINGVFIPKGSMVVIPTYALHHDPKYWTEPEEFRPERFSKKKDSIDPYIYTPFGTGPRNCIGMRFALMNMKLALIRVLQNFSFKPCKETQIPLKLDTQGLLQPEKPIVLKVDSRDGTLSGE

[21] = Genotoxicity in Salmonella typhimurium TA1537 at 47 to 1500 ug in presence of S9 fraction by bacterial reverse mutation test; type: toxicity, subcellular, Salmonella enterica subsp. enterica serovar Typhimurium; details: dose 47-1500 µg
[22] = Elimination half life in human at 100 […], po administered as single dose and measured upto 144 hrs; type: ADME, organism-based; details: in vivo, read-out: beta t1/2 (converted)
[23] = Tmax in human at 200 […], po administered as single dose and measured upto 144 hrs; type: ADME, organism-based; details: in vivo
[24] = Selectivity ratio of agonist activity at human PR to inhibition of RORgamma (unknown origin)
[25] = Tmax in human at 600 […], po administered as single dose and measured upto 144 hrs; type: ADME, organism-based; details: in vivo
[26] = Selectivity ratio of antagonist activity at mouse LXRalpha to inhibition of RORgamma (unknown origin)
[27] = Tmax in human at 1000 […], po administered as single dose and measured upto 144 hrs; type: ADME, organism-based; details: in vivo
[28] = Oral bioavailability in C57BL/6J mouse at 3 mg/kg administered as single dose and measured after 24 hrs; type: ADME, organism-based; details: in vivo
[29] = MRT in C57BL/6J mouse at 3 mg/kg, po administered as single dose and measured after 24 hrs; type: ADME, organism-based; details: in vivo
[30] = Cmax in human at 100 […], po administered as single dose and measured upto 144 hrs; type: ADME, organism-based; details: in vivo
[31] = AUClast in human at 200 mg/kg, po administered as single dose and measured upto 144 hrs; type: ADME, organism-based; details: in vivo
[32] = Selectivity ratio of antagonist activity at human RXRalpha to inhibition of RORgamma (unknown origin)
[33] = Toxicity in CHL cells assessed as chromosomal aberration at 30 to 50 ug/ml incubated for 24 hrs in presence of S9 fraction; type: subcellular, Cricetulus griseus; details: chinese hamster, s9, 24 h, dose 30-50 µg/ml
[34] = Elimination half life in human at 30 mg/kg, po administered as single dose and measured upto 144 hrs; type: ADME, organism-based; details: in vivo, read-out: beta t1/2 (converted)
[35] = Inhibition of rat GABA-B receptor
[36] = Inhibition of human nicotinic receptor
[37] = target: Acetylcholinesterase (Electrophorus electricus, UniProt O42275); assay: Inhibition of Electric eel AChE
Sequence of Acetylcholinesterase (O42275 whole entry): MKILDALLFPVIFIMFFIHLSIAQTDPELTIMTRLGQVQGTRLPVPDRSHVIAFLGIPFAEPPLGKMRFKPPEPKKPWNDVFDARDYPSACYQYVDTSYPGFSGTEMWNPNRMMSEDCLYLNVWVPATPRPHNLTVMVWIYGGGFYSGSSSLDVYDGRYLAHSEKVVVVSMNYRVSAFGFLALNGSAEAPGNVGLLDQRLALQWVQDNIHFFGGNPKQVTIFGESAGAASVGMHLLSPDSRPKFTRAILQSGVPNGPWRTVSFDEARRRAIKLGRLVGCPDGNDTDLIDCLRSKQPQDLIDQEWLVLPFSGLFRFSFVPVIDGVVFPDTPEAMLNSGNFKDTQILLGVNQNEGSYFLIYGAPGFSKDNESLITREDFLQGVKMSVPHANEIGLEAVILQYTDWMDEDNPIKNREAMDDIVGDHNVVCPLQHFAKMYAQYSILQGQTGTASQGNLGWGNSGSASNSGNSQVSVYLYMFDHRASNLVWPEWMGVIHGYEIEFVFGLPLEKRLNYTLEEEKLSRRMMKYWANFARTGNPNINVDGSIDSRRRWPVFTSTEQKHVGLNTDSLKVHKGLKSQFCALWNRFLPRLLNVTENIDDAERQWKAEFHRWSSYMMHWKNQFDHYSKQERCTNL

[38] = Elimination half life in C57BL/6J mouse at 1 mg/kg, iv administered as single dose and measured after 24 hrs; type: ADME, organism-based; details: in vivo, read-out: beta t1/2 (converted)
[39] = target: Cannabinoid receptor 1 (Homo sapiens, UniProt P21554); assay: Inhibition of human CB1 receptor
Sequence of Cannabinoid receptor 1 (P21554 whole entry): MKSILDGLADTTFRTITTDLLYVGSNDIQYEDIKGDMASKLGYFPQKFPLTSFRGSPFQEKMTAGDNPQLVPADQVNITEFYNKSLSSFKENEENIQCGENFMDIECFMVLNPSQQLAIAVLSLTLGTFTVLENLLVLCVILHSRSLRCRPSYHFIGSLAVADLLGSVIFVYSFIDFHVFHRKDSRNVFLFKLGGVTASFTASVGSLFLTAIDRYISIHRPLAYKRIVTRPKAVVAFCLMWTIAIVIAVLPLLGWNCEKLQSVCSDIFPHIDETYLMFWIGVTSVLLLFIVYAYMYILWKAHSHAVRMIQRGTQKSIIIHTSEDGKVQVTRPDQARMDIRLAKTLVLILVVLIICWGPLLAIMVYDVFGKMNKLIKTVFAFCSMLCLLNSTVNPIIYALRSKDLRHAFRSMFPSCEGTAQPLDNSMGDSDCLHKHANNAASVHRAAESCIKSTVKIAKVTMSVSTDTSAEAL

[40] = target: Histamine H1 receptor (Homo sapiens, UniProt P35367); assay: Inhibition of human histamine H1 receptor
Sequence of Histamine H1 receptor (P35367 whole entry): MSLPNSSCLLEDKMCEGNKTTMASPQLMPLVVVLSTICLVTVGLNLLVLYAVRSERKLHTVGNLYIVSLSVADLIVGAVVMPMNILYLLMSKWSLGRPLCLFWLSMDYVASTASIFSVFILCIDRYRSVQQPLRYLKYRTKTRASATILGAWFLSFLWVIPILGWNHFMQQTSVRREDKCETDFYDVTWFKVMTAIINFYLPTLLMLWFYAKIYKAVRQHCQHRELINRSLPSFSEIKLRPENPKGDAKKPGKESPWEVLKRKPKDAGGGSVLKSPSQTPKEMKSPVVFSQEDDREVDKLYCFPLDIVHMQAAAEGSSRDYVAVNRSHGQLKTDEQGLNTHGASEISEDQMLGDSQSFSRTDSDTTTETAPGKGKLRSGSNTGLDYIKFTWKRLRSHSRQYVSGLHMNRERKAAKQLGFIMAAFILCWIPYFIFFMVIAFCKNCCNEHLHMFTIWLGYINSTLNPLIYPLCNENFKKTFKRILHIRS

[41] = Cmax in human at 600 […], po administered as single dose and measured upto 144 hrs; type: ADME, organism-based; details: in vivo
[42] = Tmax in human at 1600 […], po administered as single dose and measured upto 144 hrs; type: ADME, organism-based; details: in vivo
[43] = Selectivity ratio of antagonist activity at mouse GR to inhibition of RORgamma (unknown origin)
[44] = Cardiotoxicity in Beagle dog assessed as QTcF prolongation upto 100 mg/kg, po bid measured for 24 hrs; type: toxicity, organism-based, Canis lupus familiaris; details: in vivo
[45] = Inhibition of rat nitric oxide synthase
[46] = Elimination half life in human at 200 mg/kg, po administered as single dose and measured upto 144 hrs; type: ADME, organism-based; details: in vivo, read-out: beta t1/2 (converted)
[47] = Elimination half life in cynomolgus monkey at 1 mg/kg, iv administered as single dose and measured after 24 hrs; type: ADME, organism-based, Macaca fascicularis; details: in vivo, read-out: beta t1/2 (converted)
[48] = Toxicity in Beagle dog assessed as development-limiting toxicity at 100 mg/kg, po bid administered 2 doses at 4 hrs interval and measured on day 1,14 and 28; type: organism-based, Canis lupus familiaris; details: in vivo, 672 h, time 28 day
[49] = Toxicity in CHL cells assessed as chromosomal aberration at 120 to 140 ug/ml incubated for 6 hrs in presence of S9 fraction; type: subcellular, Cricetulus griseus; details: chinese hamster, s9, 6 h, dose 120-140 µg/ml
[50] = Cmax in human at 1000 […], po administered as single dose and measured upto 144 hrs; type: ADME, organism-based; details: in vivo
[51] = Oral bioavailability in CD(SD) rat at 10 mg/kg administered as single dose and measured after 24 hrs; type: ADME, organism-based; details: in vivo

Cc1ccc(NC(=O)C[C@H](CCC(=O)O)c2noc([C@H]3C[C@@H](CC(C)(C)C)C3)c2C2CC2)c(Cl)c1
Tmax [1]: 3.03 h | AUC(0-inf) [2]: 191 µM·h | Selectivity ratio [3]: > 100 | IC50 [4]: > 10 µM | Selectivity ratio [5]: > 100 | AUC(0-t) at 144 h [6]: 94300 ng·h/mL | IC50 [7]: > 10 µM | Selectivity ratio [8]: > 100 | Selectivity ratio [9]: > 100 | IC50 [10]: > 10 µM | Selectivity ratio [11]: > 100 | clearance [12]: 0.5 mL/min/kg | Selectivity ratio [13]: > 100 | Activity [14]: Non-Toxic | Activity [15]: Non-Toxic | IC50 [16]: > 10 µM | IC50 [17]: > 10 µM | IC50 [18]: > 10 µM | Tmax [19]: 4 h | IC50 [20]: > 10 µM | Activity [21]: Non-Toxic | half-life [22]: 13.2 h | Tmax [23]: 3.25 h | Selectivity ratio [24]: > 100 | Tmax [25]: 3 h | Selectivity ratio [26]: > 100 | Tmax [27]: 3.5 h | bioavailability [28]: 98% | MRT [29]: 5.8 h | Cmax [30]: 3810 ng/mL | AUC(0-t) at 144 h [31]: 49500 ng·h/mL | Selectivity ratio [32]: > 100 | Activity [33]: Non-Toxic | half-life [34]: 5.63 h | IC50 [35]: > 10 µM | IC50 [36]: > 10 µM | IC50 [37]: > 10 µM | half-life [38]: 3.8 h | IC50 [39]: > 10 µM | IC50 [40]: > 10 µM | Cmax [41]: 26400 ng/mL | Tmax [42]: 3.54 h | Selectivity ratio [43]: > 100 | Activity [44]: Non-Toxic | IC50 [45]: > 10 µM | half-life [46]: 12.4 h | half-life [47]: 5.9 h | Activity [48]: Non-Toxic | Activity [49]: Non-Toxic | Cmax [50]: 38100 ng/mL | bioavailability [51]: 106%
